Holding throughout (format): functional
The test system of one test is Enterococcus faecalis. As to the kind of experiment: Minimum inhibitory concentration of the compound againstEnterococcus faecalis ATCC 51299 with an erm(B)-encoded ribosomal methylase was determined.
The test system of test [1] is Mus musculus. As to the kind of experiment: Effective dose required to inhibit Staphylococcus aureus in mouse was determined after peroral administration of the compound. Particulars: po.
Test [2] has as its system Streptococcus pneumoniae. Nature of the test: Minimum inhibitory concentration of the compound against erythromycin-susceptible Streptococcus pneumoniae was determined.
The subject of test [3] is Mus musculus. As to the kind of experiment: Effective dose required to inhibit Staphylococcus aureus in mouse was determined after sub cutaneous administration (6.6-70).
Test [4] concerns Streptococcus pneumoniae. Nature of the test: Minimum inhibitory concentration of the compound against 3 […] Streptococcus pneumoniae OC4421 with an mef(A) efflux-mediated resistance was determined.
A further test deals with Staphylococcus aureus. Nature of the test: Minimum inhibitory concentration of the compound against erythromycin-susceptible Staphylococcus aureus Smith OC4172 was determined.
Test [5] concerns Streptococcus pneumoniae. Nature of the test: Minimum inhibitory concentration of the compound against 3 […] Streptococcus pneumoniae OC4051 with an erm(B)-ribosomal methylase-mediated resistance was determined.
Another test relates to Haemophilus influenzae. As to the kind of experiment: Minimum inhibitory concentration of the compound against Haemophilus influenzae OC4882 was determined.
In test [6] the test system is Mus musculus. Nature of the test: Effective dose required to inhibit Staphylococcus aureus in mouse was determined after peroral administration of the compound; (8.1- 14). To be noted: po.
Test [7] relates to Mus musculus. As to the kind of experiment: Effective dose required to inhibit Staphylococcus aureus in mouse was determined after sub cutaneous administration (0.5-1.4).

SMILES strings stand for the structures. Values after ≈ are worked out from the molar mass of the structure shown.

The term ED50 denotes the midpoint of the dose-response relation. The low end stands for an effect at a small dose, the high end for a need for a large dose.

In the case of `CC[C@H]1OC(=O)[C@@](C)(F)C(=O)[C@H](C)[C@@H](O[C@@H]2O[C@H](C)C[C@H](N(C)C)[C@H]2O)[C@](C)(OC(=O)NC/C=C/c2ccc(-c3ncccn3)cc2)C[C@@H](C)C(=O)[C@H](C)[C@H]2NC(=O)O[C@@]21C`, the MIC against Enterococcus faecalis is 8 µg/mL (≈ 9.37 µM); against Streptococcus pneumoniae [2], 0.06 µg/mL (≈ 0.0703 µM); against Streptococcus pneumoniae [4], 0.12 µg/mL (≈ 0.141 µM); in the test on Staphylococcus aureus, 0.5 µg/mL (≈ 0.585 µM); with Streptococcus pneumoniae [5] it was 0.12 µg/mL (≈ 0.141 µM); in the test on Haemophilus influenzae, 8 µg/mL (≈ 9.37 µM). For the same molecule, the figures for the 50% effective dose (ED50) in the test on Mus musculus [1] and in the test with Mus musculus [3] were above 40 mg/kg and 12 mg/kg, respectively.
With `CC[C@H]1OC(=O)C(C)C(=O)[C@H](C)[C@@H](O[C@@H]2O[C@H](C)C[C@H](N(C)C)[C@H]2O)[C@](C)(OC(=O)NC/C=C/c2ccc(-c3ncccn3)cc2)C[C@@H](C)C(=O)[C@H](C)[C@H]2NC(=O)O[C@@]21C` (stereo partly drawn), the ED50 in the test on Mus musculus [6] was found to be 10 mg/kg; in the test with Mus musculus [7] it was 1 mg/kg.
As to `CC[C@H]1OC(=O)[C@@](C)(F)C(=O)[C@H](C)[C@@H](O[C@@H]2O[C@H](C)C[C@H](N(C)C)[C@H]2O)[C@](C)(OC(=O)NC/C=C/c2cccnc2)C[C@@H](C)/C(=N\O)[C@H](C)[C@H]2NC(=O)O[C@@]21C`, the MIC in the test with Enterococcus faecalis was above 16 µg/mL; against Streptococcus pneumoniae [2], 0.06 µg/mL (≈ 0.0758 µM); with Streptococcus pneumoniae [4], 0.5 µg/mL (≈ 0.631 µM); in the test with Staphylococcus aureus it was 0.5 µg/mL (≈ 0.631 µM); in the test on Streptococcus pneumoniae [5] it was 0.12 µg/mL (≈ 0.152 µM); in the test with Haemophilus influenzae it was 2 µg/mL (≈ 2.53 µM).
Take `CC[C@H]1OC(=O)[C@@](C)(F)C(=O)[C@H](C)[C@@H](O[C@@H]2O[C@H](C)C[C@H](N(C)C)[C@H]2O)[C@](C)(OC(=O)NC/C=C/c2ccc(-c3ncccn3)o2)C[C@@H](C)C(=O)[C@H](C)[C@H]2NC(=O)O[C@@]21C`: the MIC is above 16 µg/mL against Enterococcus faecalis; 0.06 µg/mL (≈ 0.0711 µM) in the test on Streptococcus pneumoniae [2]; 0.5 µg/mL (≈ 0.592 µM) against Streptococcus pneumoniae [4]; 0.5 µg/mL (≈ 0.592 µM) in the test on Staphylococcus aureus; 0.12 µg/mL (≈ 0.142 µM) against Streptococcus pneumoniae [5]; 16 µg/mL (≈ 19 µM) against Haemophilus influenzae.
With `CC[C@H]1OC(=O)[C@@](C)(F)C(=O)[C@H](C)[C@@H](O[C@@H]2O[C@H](C)C[C@H](N(C)C)[C@H]2O)[C@](C)(OC(=O)NCc2cn(-c3ncccn3)cn2)C[C@@H](C)C(=O)[C@H](C)[C@H]2NC(=O)O[C@@]21C`, the MIC against Enterococcus faecalis was above 16 µg/mL; against Streptococcus pneumoniae [2], 0.03 µg/mL (≈ 0.0367 µM); in the test with Streptococcus pneumoniae [4], 0.5 µg/mL (≈ 0.611 µM); against Staphylococcus aureus it was 0.25 µg/mL (≈ 0.306 µM); with Streptococcus pneumoniae [5], 0.12 µg/mL (≈ 0.147 µM); with Haemophilus influenzae, 4 µg/mL (≈ 4.89 µM).

The values are drawn from ChEMBL document CHEMBL1141900, “Synthesis and antibacterial activity of C2-fluoro, C6-carbamate ketolides, and their C9-oximes” (2005).
